Test results from publication PMC5705272 (Neurobiology of aging, 2017).

Target: T1, PKC-λ/ι (PKC-ι) (Homo sapiens, UniProt P41743)
T1 sequence (P41743 2-596): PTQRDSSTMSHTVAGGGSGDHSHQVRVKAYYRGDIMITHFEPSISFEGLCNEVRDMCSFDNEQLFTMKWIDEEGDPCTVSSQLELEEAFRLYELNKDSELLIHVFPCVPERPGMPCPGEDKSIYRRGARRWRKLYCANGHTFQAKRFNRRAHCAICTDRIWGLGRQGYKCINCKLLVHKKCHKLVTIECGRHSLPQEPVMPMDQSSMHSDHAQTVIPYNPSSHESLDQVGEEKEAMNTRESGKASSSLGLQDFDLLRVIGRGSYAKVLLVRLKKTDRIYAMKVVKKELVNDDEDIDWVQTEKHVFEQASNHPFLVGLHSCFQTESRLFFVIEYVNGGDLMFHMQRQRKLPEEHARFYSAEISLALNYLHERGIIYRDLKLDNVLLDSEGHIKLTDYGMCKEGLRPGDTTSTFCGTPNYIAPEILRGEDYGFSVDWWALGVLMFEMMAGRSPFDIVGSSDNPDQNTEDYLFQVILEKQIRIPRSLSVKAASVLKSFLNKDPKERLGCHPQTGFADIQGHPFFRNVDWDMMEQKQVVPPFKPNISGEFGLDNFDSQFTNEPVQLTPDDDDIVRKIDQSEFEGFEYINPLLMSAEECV
Format: cell-based

NC(=O)c1ncn([C@@H]2C[C@H](COP(=O)(O)O)[C@@H](O)[C@H]2O)c1N [ICAPP, 1H-imidazole-4-carboxamide,5-amino]-[2,3-dihydroxy-4-[(phosphono-oxy)methyl]cyclopentane-[1R-(1a,2b,3b,4a)]]
IC50: 1 to 10 nM
